# Test results taken from patent US8158623B2, “Heptacyclic compounds and the pharmaceutical uses thereof for preventing and treating diabetes and metabolic syndrome” (Shanghai Institute of Materia Medica Chinese Academy of …, priority 2007, dated 2012).
# Experiments:
# 3T3-L1 adipocytes = test: Glucose uptake in 3T3-L1 adipocytes (3H-labelled 2-deoxyglucose); assay type: cell-based
# Experimental: The effect of the compounds on baseline or insulin-stimulated glucose uptake was evaluated, using the model of glucose uptake in 3T3-L1 adipocytes.
# Adipose tissue is the target of glucose metabolism in vivo. The sensitivity for insulin and availability of glucose in adipose tissues are tightly associated with the insulin resistance. The transportation of glucose into adipocytes is a rate-limiting step for the glucose metabolism, and also an important indicator for evaluating the sensitivity for insulin in adipose tissue. 3T3-L1 is a kind of pre-adipocyte, and can become adipocyte after differentiated completely. Therefore, 3T3-L1 is a desirable model for the glucose transport.
# Pre-adipocyte, 3T3-L1 was induced to differentiate under certain conditions. After 3T3-L1 differentiated into adipocytes, the compounds of interest with different concentrations and DMSO (used as control) can be added and incubated with the adipocytes for different periods, then the glucose uptake could be determined. For evaluating the ability for a compound to stimulate glucose uptake, the baseline and insulin-induced glucose uptake were determined, and the increase in baseline and insulin-induced glucose uptake upon treatment of the compounds as compared with control group (with 0.1% DMSO) is calculated, based on the ^3H-labelled 2-deoxyglucose inside the cells.
# 3T3-L1 cells purchased from Karolinska Institute (Sweden) were cultured in DMEM medium containing 10% fetal calf serum at 37° C., under 5% CO2. The cells were passaged every 3-4 days. The cells were inoculated into 12-well plate. Upon confluence, culture medium containing 0.5 mM 3-isobutyl-1-methylxanthine, 0.25 μM dexamethasone and 5 μg/ml insulin was added and cultured for 3 days. Then, the culture medium was replaced by a medium containing 5 μg/ml insulin and further cultured for 3 days. The insulin was removed, and the cells had differentiated completely into mature adipocytes after 2 days which could be used to determine the glucose uptake.
# 23 compounds chosen by the inventors were added into the culture medium of adipocytes in a dose of 10 μM. After incubation for 2 h, the effect of the compounds on glucose uptake in 3T3-L1 cells was observed. Culture medium without compounds was used as negative control. The control group only supplemented with insulin and the experiment group supplemented with compounds plus insulin were also employed to observe the effect of the compounds on glucose uptake.
# [1] = tested on: Acetyl CoA Carboxylase (ACC); test: Phosphorylation of ACC in HepG2 cell (Western blot); assay type: cell-based, Human; conditions: HepG2, 50 uM, 5 minutes, P<0.01 or P<0.05
# Experimental: (§1) Human hepatoma carcinoma cell strain (HepG2, purchased from the cell bank of Shanghai Institute of Cell Biology of Chinese Academy) was used. The Human hepatoma carcinoma cells were passaged by 0.1% pancreatin/0.02% EDTA digestion, and cultured in a incubator at 37° C. using MEM culture medium containing 10% FBS, under 5% CO2/95%.
# (§2) HepG2 cells were cultured in 6-well plates for 48 hours until 70%-80% confluence. Serum starvation was started by changing medium with MEM containing 0.5% BSA. After starvation for 6 hours, cells were treated with the compounds (final concentration of 50 uM, containing 0.25% DMSO) for 5 minutes. The culture medium was discarded, and cells were harvested and washed for twice with pre-cooled PBS. The washing liquid was discarded, and any residual PBS was blotted dry. DMSO without heptacyclic compounds was used as control.
# (§3) Extraction of total cellular protein: 150 μl/well homogenizing buffer (137 mM NaCl, 2.7 mM KCl, 1 mM MgCl2, 0.5 mM Na3VO4, 1% Triton X-100, 10% Glycerol, 20 mM Tris-HCl pH 7.8, 1 ug/ml Leupeptin, 0.2 mM PMSF, 10 mM NaF, 1 ug/ml Aprotinin, 1 mM EDTA, 1 mM DTT, 5 mM Sodium pyrophosphate, 1 mM Benzamidine) was added. Cells were collected into a 1.5 ml centrifuge tube using cell scraper. Cells were homogenized using sonicator (5 W of power) for 2 times (3 seconds per time), and shaken on a shaker for 1 hour. Supernatant (i.e., total cellular protein) was collected by centrifuging at 14000 rpm for 15 min at 4° C., and stored at −70° C. until use. After the protein concentration was determined by Bradford method, the supernatant was formulated as the loading sample with final concentration of 0.6 mg/ml. The whole preparation process was performed at 4° C.
# (§4) Protein Electrophoresis: After being treated at 95° C. for 5 min, the loading sample was loaded (15 μg protein/lane). The protein was separated on 7.5% SDS-acrylamide gel for 1-2 hours under the voltage of 80-120 V.
# (§5) Electrotransferring the protein and blocking the membrane: After electrophoresis was finished, the protein was transferred to PVDF membrane using semi-dry transferring slot based on 0.8 mA/cm^2 membrane area under the electric current of 80 mA for 2 hours. After that, the membrane was shaken for 2 hours with 7.5% skim milk/TTBS to block the membrane.
# (§6) Antigen-antibody reaction: After the blocking process was finished, the membrane was incubated with primary antibody (antibody against phosphorylated ACC (P-ACC) and antibody against phosphorylated AMPK (P-AMPK), all purchased from Cell signaling (USA), with the working concentration of 1:1000) overnight at 4° C. The membrane was removed, and the primary antibody was recovered. The membrane was washed 5 times, each for 10 min in TTBS. The membrane was shaken for 2 hours with the secondary antibody (horseradish peroxidase-conjugated goat-anti-rabbit IgG antibody, purchased from Bio-rad (USA), with the working concentration of 1:5000) at room temperature. The secondary antibody was discarded. The membrane was washed 5 times, each for 10 min in TTBS in order to remove the unbound secondary antibody.
# (§7) ECL exposure and development: Luminescent agents, ECL 1, 2, were mixed homogeneously, and incubated with the membrane for 3-5 min. The membrane was removed, wrapped in preservative film, and transferred into dark room for exposure. After exposure with X-film, the film was developed, washed, recorded and conserved.
# (§8) Semi-quantitative analysis was performed through optical density scan using computer image analysis system. Grey level of the protein expression was calculated. The target grey level was divided by the grey level of internal standard, and a histogram was plotted, taking the normal group as 1 unit.
# [2] = tested on: AMP-Activated Protein Kinase (AMPK); test: Phosphorylation of AMPK in HepG2 cell (Western blot); assay type: cell-based, Human; conditions: HepG2, 50 uM, 5 minutes, P<0.01 or P<0.05
# Experimental: as §1, §2, §3, §4, §5, §6, §7, §8
# ob/ob mice [3] = test: Fasting blood glucose in ob/ob mice, several heptacyclic compounds, 8 days; assay type: in vivo
# Experimental: Genetic spontaneous diabetes ob/ob mice were purchased from Jackson (USA), and maintained in a SPF facility (temperature: 22-24° C., humidity: 45-80%, illumination: 150-300 Lx, 12/12-hour light/dark cycle). Fasting blood glucose was determined for 3 days continuously when the mice were 7 weeks old. The mice were grouped into the treatment group and the control group (6 animals per group) according to the results determined. The treatment groups were administered orally with compound E9, G0 and F7 (psoromic acid) (100 mg/kg), and the control group was administered orally with a solution of 0.1% Tween 80 (blank control), once daily for 8 days. Fasting blood glucose in mice was determined at the end of experiment.
# ob/ob mice [4] = test: Hypoglycemic effect of the combination of F7 with Glibenclamide; assay type: in vivo; conditions: Glibenclamide 25 mg/kg oral, with or without F7 50 mg/kg oral pretreatment for 10 days
# Experimental: (§9) Genetic spontaneous diabetes ob/ob mice were purchased from Jackson (USA), and maintained in a SPF facility (temperature: 22-24° C., humidity: 45-80%, illumination: 150-300 Lx, 12/12-hour light/dark cycle). Fasting blood glucose was determined daily for 3 days continuously when the mice were 7 weeks old. The mice were grouped into the pretreatment group of Compound F7 and non-pretreatment group (16 animals per group) according to the results determined. The groups were administered orally with compound F7 (50 mg/kg) or a solution of 0.1% Tween 80 respectively, once daily for 10 days. The pretreatment group and the non-pretreatment group were divided into two subsets (8 animals per subset) respectively, and subcutaneously injected with insulin (0.6 U/kg) or orally administered with Glibenclamide (25 mg/kg) respectively. Then, blood glucose levels were measured at different time points and the percentage of change in blood glucose level was calculated.
# ob/ob mice [5] = test: Hypoglycemic effect of the combination of F7 with insulin; assay type: in vivo; conditions: insulin 0.6 U/kg s.c., with or without F7 50 mg/kg oral pretreatment for 10 days
# Experimental: as §9
compound,measurement,setting,value
"CCOCc1c(O)c(C(=O)O)c(C)c2c1OC(=O)c1c(C)cc(O)c(C=O)c1O2 [Compound G0, 9-Ethoxymethyl-4-formyl-3,8-dihydroxy-1,6-dimethyl-11-oxo-11H-dibenzo[b,e][1,4]dioxepine-7-carboxylic acid]","Glucose uptake, Mean, Compound + Insulin Group (Control Group = 1.000)","3T3-L1 adipocytes; 10 μM, 2 h incubation, with insulin, relative to control without insulin",1.297
same,fold induction at 10 µM,"3T3-L1 adipocytes; Mus musculus, 3T3-L1, 2 h incubation, baseline (without insulin), relative to control, read-out: Glucose uptake, Mean, Compound Group (Control Group = 1.000)",1.22
same,Level of phosphorylation for ACC protein versus DMSO control,[1],improved significantly
same,Level of phosphorylation for AMPK protein versus DMSO control,[2],increased significantly
same,Fasting Blood Glucose,ob/ob mice [3]; before administration,11.95 ± 1.49 mM
same,Fasting blood glucose change in words,"ob/ob mice [3]; dosed continuously for 8 days, P<0.05",reduced statistically significant
same,Fasting Blood Glucose,"ob/ob mice [3]; oral 100 mg/kg once daily, after 8 days treatment",8.07 ± 1.07 mM
COc1ccc(Cl)cc1C(=O)NCCc1ccc(S(=O)(=O)NC(=O)NC2CCCCC2)cc1 [Glibenclamide],The percentage of change in blood glucose level,ob/ob mice [4]; 1 h,90.2 ± 7.3%
same,The percentage of change in blood glucose level,ob/ob mice [4]; 2 h,76.7 ± 10.2%
same,The percentage of change in blood glucose level,ob/ob mice [4]; 3 h,68.0 ± 7.3%
Insulin,The percentage of change in blood glucose level,ob/ob mice [5]; 15 minutes,113.9 ± 8.3%
same,The percentage of change in blood glucose level,ob/ob mice [5]; 40 minutes,96.3 ± 18.0%
same,The percentage of change in blood glucose level,ob/ob mice [5]; 90 minutes,90.6 ± 14.7%
same,The percentage of change in blood glucose level,ob/ob mice [5]; 120 minutes,101.6 ± 11.2%
